Measurements: EP0172632B1, “Benzopyrano[4,3,2-cd]indazole compounds, processes for their production and pharmaceutical compositions comprising the compounds” (WARNER-LAMBERT COMPANY, priority 1984, dated 1986)
Counter-ions that a name gives are not always drawn.

Tests used:
HCT-8 cells = experiment: in vitro proliferating human colon adenocarcinoma (HCA) cell screen; format: cell-based; settings: 60 to 65 hours with compound, 50% inhibition of growth, read-out: HCA-4 in vitro ID50
Procedure: One test protocol is the in vitro proliferating human colon adenocarcinoma (HCA) cell screen. In this test, HCT-8 cells (HCA cell line received from Yale University) are trypsinized using trypsin-EDTA. A single cell suspension is achieved by passing the cells through a 26 gauge needle with a 20 cc syringe. A cell suspension is prepared using RPMI 1640 + 10% FCS + 50 µg/ml gentamicin sulfate with a cell concentration of approximately 30,000 cells/ml. The cell suspension is dispensed in Linbro 24-well plates; 1 ml/well. The plates are incubated for approximately 48 hours at 37°C in a 5% CO2 atmosphere. At this time test compounds are added in the appropriate concentration. Five µl of the 200 µg/ml stock solution is added to each well in a primary test. Ten ul of the appropriate dilution is added to each well for the titration test. The plates are reincubated an additional 60 to 65 hours at 37°C in a 5% C02 atmosphere. The cells are lysed using a mix of cationic surfactant, glacial acetic acid, and sodium chloride. Two ml of the lysed cell suspension from each well is added to 8 ml of diluent. The number of nuclei is determined using a Coulter counter (ZBI model), and a percent growth for each drug concentration is calculated. From this, an IDso (molar concentration of compound that results in 50% inhibition of growth) is determined.

[1] = test system: lymphocytic leukemia P388; experiment: in vivo lymphocytic leukemia P388 test; settings: Mus musculus, P388, ip, 120 h, mice, survival time treated/control, read-out: P388 in vivo T/C×100; for response vs control in vivo at 12.5 mg/kg: Dose 12.5 mg/kg intraperitoneally once daily for five days; for response vs control in vivo at 25 mg/kg: Dose 25 mg/kg intraperitoneally once daily for five days
Procedure: Another test protocol is the in vivo lymphocytic leukemia P388 test. The animals used are either male or female CD2F, mice. There are six or seven animals per test group. The tumor transplant is by intraperitoneal injection of dilute ascitic fluid containing cells of lymphocytic leukemia P388. The test compounds are administered intraperitoneally once daily for five consecutive days at various doses following tumor inoculation. The animals are weighed and survivors are recorded on a regular basis for 30 days. A compound is designated "toxic" if, at a given dose, all animals died prior to four days after the first injection of drug. A ratio of survival time for treated (T)/control (C) animals is calculated. A criterion for efficacy is a ratio T/C times 100 greater than or equal to 125. See Cancer Chemotherapy Reports, Part 3, 3, 1 (1972) for a comprehensive discussion of the protocol.

Bacillus subtilis 04555 = experiment: in vitro antibacterial/antifungal (ABF) agar-disk diffusion assay; format: cell-based; settings: read-out: ABF Zone Diameter (Conc. in mg/ml) B. Sub-tilis; for zone of inhibition at 500 µg/mL: Conc. .5 mg/ml
Procedure: (§1) Still another test protocol is the in vitro antibacterial/antifungal (ABF) test. Compounds are tested for antimicrobial activity in an agar-disk diffusion assay, a standard microbiological technique for testing antibiotics. After incubation of each culture with a test compound, a zone of inhibition is determined. The zone diameter (mm) of active compounds ranges from a minimum of 13.5 mm to as high as 60 mm, with a greater diameter reflecting higher activity. For convenience, values are reported for two gram-negative bacteria (Aerobacter aerogenes 0126 and Escherichia coli 04863), two gram-positive bacteria (Bacillus subtilis 04555 and Streptococcus faecalis 05045 utilizing AM-09 medium), and one mycelial fungus (Penicillium avellaneum M2988).

[2] = test system: Streptococcus faecalis 05045; experiment: as above; format: cell-based; settings: Enterococcus faecalis, AM-09 medium, read-out: ABF Zone Diameter (Conc. in mg/ml) S. Fae-calis; for zone of inhibition at 500 µg/mL: Conc. .5 mg/ml
Procedure: as §1

[3] = test system: Penicillium avellaneum M2988; experiment: as above; format: cell-based; settings: Hamigera avellanea, read-out: ABF Zone Diameter (Conc. in mg/ml) P. Avell-aneum; for zone of inhibition at 3000 µg/mL: Conc. 3 mg/ml
Procedure: as §1

L1210 cells = experiment: L1210 in vitro cell growth inhibition; format: cell-based; settings: Mus musculus, 72 h; L1210 murine leukemia cells, three days incubation, 50% inhibition of growth; read-out: L1210 in vitro ID50
Procedure: Another test protocol uses L1210 cells, a murine leukemia cell line, grown in RPMI 1640 supplemented with 5% fetal bovine serum and gentamicin ([…]). Drug dilutions are prepared in the appropriate solvent and 20 µl of each dilution are added to 24-well Linbro tissue culture plates, followed by the addition of 2.0 ml of cell suspension containing 3 x 10^4 cells per ml. Solvent and medium controls are included in each test. After incubation at 37°C for three days in 5% CO2, the contents of each well are removed and the cells counted in a ZBI Counter counter. Percent growth are calculated relative to the controls and the levels of drug activity are expressed as ID50 in moles per liter.

Streptococcus pneumoniae = experiment: in vitro antibacterial (ABMF) microdilution susceptibility test; format: cell-based; settings: Mueller-Hinton broth microdilution, 37°C, 16-24 hours, read-out: ABMF Minimal Inhibitory Concentration (µ/ml) S. pneum.
Text: (§2) Still another test protocol is the in vitro antibacterial (ABMF) test which is a recognized standard microdilution susceptibility procedure in Mueller-Hinton broth against Gram-positive and Gram-negative bacterial test organisms. The procedure is a modification of a state-of-the-art procedure reported in Manual of Clinical Microbiology, Lennette, E. H., ed., by Barry, A. L. and C. Thornsberry at pages 463-474 and by Gavan, T. L. and A. L. Barry at pages 459―462, American Society for Microbiology, Washington, 1980.
(§3) In the test, a given bacterial culture is used to inoculate individual test wells of microdilution trays containing growth medium and test compound, the latter in a microdilution series: 1000, 333.111, 37,12, 4, 1.4, and 0.46 micrograms per milliliter. […] For convenience, values are reported for Escherichia coli, Corynebacterium Sp. ATCC 21698, Salmonella typhimurium, Streptococcus pneumoniae, and Rhodotorula aurantiaca.

Salmonella typhimurium = experiment: as above; format: cell-based; settings: Salmonella enterica, Mueller-Hinton broth microdilution, 37°C, 16-24 hours, read-out: ABMF Minimal Inhibitory Concentration (µ/ml) S. typh.
Text: as §2, §3

Rhodotorula aurantiaca = experiment: as above; format: cell-based; settings: Buckleyzyma aurantiaca; Mueller-Hinton broth microdilution, 37°C, 16-24 hours; read-out: ABMF Minimal Inhibitory Concentration (µ/ml) R. aurant
Text: as §2, §3

Escherichia coli = experiment: as above; format: cell-based; settings: Mueller-Hinton broth microdilution, 37°C, 16-24 hours, read-out: ABMF Minimal Inhibitory Concentration (µ/ml) E. coli
Text: as §2, §3

[4] = test system: Corynebacterium Sp. ATCC 21698; experiment: as above; format: cell-based; settings: ATCC21698, Mueller-Hinton broth microdilution, 37°C, 16-24 hours, read-out: ABMF Minimal Inhibitory Concentration (µ/ml) Coryn. sp.
Text: as §2, §3

Row | IC50 (HCT-8 cells) [nM] | IC50 (L1210 cells) [nM] | SMILES | zone of inhibition at 500 µg/mL (Bacillus subtilis 04555) [mm] | zone of inhibition at 500 µg/mL [2] [mm] | zone of inhibition at 3000 µg/mL [3] [mm] | response vs control in vivo at 12.5 mg/kg [1] [%] | response vs control in vivo at 25 mg/kg [1] [%] | MIC (Streptococcus pneumoniae) [µg/mL] | MIC (Salmonella typhimurium) [µg/mL] | MIC (Rhodotorula aurantiaca) [µg/mL] | MIC (Escherichia coli) [µg/mL] | MIC [4] [µg/mL] | also measured
1 | 1000 | 1900 | CCN(CC)CCn1nc2c3c(c([N+](=O)[O-])ccc31)Oc1ccccc1-2 [Example 1, N,N-Diethyl-5-nitro-2H-[1] benzopyrano[4,3,2-cd]indazole-2-ethanamine] | 14 | 15 | 0 | – | – | – | – | – | – | – | response vs control in vivo at 100 mg/kg ([1]; Dose 100 mg/kg intraperitoneally once daily for five days): 138%; response vs control in vivo at 200 mg/kg ([1]; Dose 200 mg/kg intraperitoneally once daily for five days): 211%
2 | 500 | 400 | O=[N+]([O-])c1ccc2c3c(nn2CCNCCO)-c2ccccc2Oc13 [Example 2, 2-[[2-(5-Nitro-2H-[1]benzopyrano[4,3,2-cd]-indazol-2-yl)ethyl]amino]ethanol, monohydrochloride] | – | 17 | – | – | – | – | – | – | – | – | response vs control in vivo at 50 mg/kg ([1]; Dose 50 mg/kg intraperitoneally once daily for five days): 141%; zone of inhibition at 100 µg/mL (Bacillus subtilis 04555; Conc. .1 mg/ml): 17 mm; zone of inhibition at 100 µg/mL ([3]; Conc. .1 mg/ml): 19 mm
3 | 2400 | 1300 | CCN(CC)CCn1nc2c3c(c(N)ccc31)Oc1ccccc1-2 [Example 3, 5-Amino-N,N-diethyl-2H-[1]benzopyrano[4,3,2-cd]indazol-2-ethanamine] | – | – | – | – | – | – | – | – | – | – | –
4 | 160 | 80 | CCN(CC)CCn1nc2c3c(c(NCCN)ccc31)Oc1ccccc1-2 [Example 4, N-[2-[2-(Diethylamino)ethyl]-2H-[1]benzopyrano[4,3,2-cd]indazol-5-yl]ethanediamine, trihydrobromide, dihydrate] | 14 | – | 0 | 174 | 216 | – | – | – | – | – | zone of inhibition at 3000 µg/mL ([2]; Conc. 3 mg/ml): 16 mm

Row | SMILES | IC50 (HCT-8 cells) [nM] | IC50 (L1210 cells) [nM] | zone of inhibition at 500 µg/mL (Bacillus subtilis 04555) [mm] | zone of inhibition at 500 µg/mL [2] [mm] | zone of inhibition at 3000 µg/mL [3] [mm] | response vs control in vivo at 12.5 mg/kg [1] [%] | response vs control in vivo at 25 mg/kg [1] [%] | MIC (Streptococcus pneumoniae) [µg/mL] | MIC (Salmonella typhimurium) [µg/mL] | MIC (Rhodotorula aurantiaca) [µg/mL] | MIC (Escherichia coli) [µg/mL] | MIC [4] [µg/mL] | also measured
5 | O=C(CNCCO)Nc1ccc2c3c(nn2CCNCCO)-c2cc(O)ccc2Oc13 [Example 17, 2-[2-[(2-Hydroxyethyl)amino]ethyl]-9-hydroxy-2H-[1]benzopyrano[4,3,2-cd]indazol-5-yl]-2-[(2-hydroxyethyl)amino]acetamide, hydrochloride] | – | 1700 | – | – | – | – | – | > 1000 | > 1000 | 1000 | 1000 | 333 | response vs control in vivo at 60 mg/kg ([1]; Dose 60 mg/kg intraperitoneally once daily for five days): 134%; response vs control in vivo at 120 mg/kg ([1]; Dose 120 mg/kg intraperitoneally once daily for five days): 142%; response vs control in vivo at 240 mg/kg ([1]; Dose 240 mg/kg intraperitoneally once daily for five days): 184%
6 | OCCNCCNc1ccc2c3c(nn2CCNCCO)-c2cc(O)ccc2Oc13 [Example 18, 2-[2[(2-Hydroxyethyl)amino]ethyl]-5-[[2-[(2-hydroxyethyl)amino]ethyl]amino-2H [1]benzopyrano[4,3,2-cd]indazol-9-ol, hydrochloride] | – | 130 | – | – | – | 236 | 236 | 333 | 1000 | > 1000 | 111 | 37 | response vs control in vivo at 6.25 mg/kg ([1]; Dose 6.25 mg/kg intraperitoneally once daily for five days): 173%
